Results: patent publication US7625870B2, “Peptide substance restoring respiratory organs function” (“Access Bioscience” CJSC, priority 2004, dated 2009)
Peptide text beside a SMILES is read from it.

What was measured:
Format in all cases: in vivo, rat
[1] = system: sublethal hyperoxic lung injury in rats; experiment: Sublethal hyperoxic lung injury in rats
Method: The experiment was conducted on 96 white mongrel rats weighing 200-230 g. The animals were divided into three groups: 8 intact animals, 48 control and 40 experimental animals. The animals were exposed to oxygenation by 100% oxygen during 60 hours in the running mode by normal pressure in chamber with oxygen expenditure, providing 8-10 full changes of the gas medium in one hour. Tetrapeptide administration was set out on the 3rd day of being in the normal atmosphere. Experimental animals were administered with the tetrapeptide (intraperitoneal administration in the dose of 0,2 μg/kg of body weight, dissolved in 0.9% sodium chloride solution (natural saline), 10 injections, every other day). […] There were conducted biometrical studies, estimation of BALF cytogram and AM phagocytic activity. BALF cellular content was estimated by coloring of the precipitated cells on the glass following the Leishman-Romanowsky method.

white mongrel male rats = experiment: Subacute toxicity, 90 days intramuscular; details: long term administration, doses 100-1000 times exceeding the therapeutic one
From the text: The general toxic effect of tetrapeptide was studied in compliance with “The manual of Experimental (Pre-Clinical) Study of New Pharmacological Substances” (2000): acute toxicity was studied in conditions of tetrapeptide single administration, subacute and chronic toxicity were investigated in conditions of long tetrapeptide administration.
Subacute toxicity of the tetrapeptide was investigated on 60 white mongrel male rats weighing 150-250g. The animals of the experimental groups were exposed to intramuscular injection of the tetrapeptide in the doses of 1 μg/kg, 0,1 mg/kg, 1 mg/kg in 0,5 ml of natural saline solution, once a day for 90 days. The animals of the control group were administered with natural saline solution in the same amount. Before the onset of tetrapeptide administration in the 30th, 60th and 90th day the animals were exposed to an examination of the morphological composition and characteristics of the peripheral blood. On the completion of the experiment there were studied biochemical and coagulological blood indices.

[2] = system: acute bacterial lung injury (Staphilococcus aureus 209) in rats; experiment: Acute inflammation model, bacterial lung injury in rats (BALF cytogram, AM phagocytic activity)
Method: The study was conducted on 120 white mongrel rats with average body weight 200-230 g. The animals were divided at random into 3 groups: 10 (intact), 60 (control) and 50 (experimental). In order to infect the animals there was used twenty-four-hours' culture of Staphilococcus aureus 209, which is tropic to rodents pulmonic tissue. There was also used a cellular suspension 5×10^6 cl/ml with Freind adjuvant (25% of total volume). Before infecting the animals were exposed to a supercooling at temperature −20° C. for 1 hour. Then the animals were infected using light thiopental narcosis (8 mg/100g of body weight) in sterile box. Injections of tetrapeptide were started in 2 days after infecting and were conducted for 7 days (daily, intraperitoneally in dose of 0,2 μg/kg). Control animals were administered with 0.9% NaCl solution. The animals were excluded from the trial on the 1, 3, 6, 10, […] and 20th days by the method of cervical dislocation. In each period there was conducted BAFL testing in order to estimate its cellular content and AM phagocytic activity, superoxid-anion (SA) production and total free radical production by BAFL cells. On the 1 and the 6th days of the study there was conducted lung morphological examination.

[3] = system: bleomycine lung fibrosis in rats; experiment: Chronic fibrosing inflammatory process (bleomycine lung fibrosis) in rats; details: for Body weight / Relative lungs weight / Ventricular index, right ven./left ven. × 100%: 0,2 μg/kg intraperitoneally; for Blood large CIC / Blood medium CIC: blood serum
Method: The experiment was carried out on 120 white mongrel rats weighing 130-160 g. The animals were divided at random into 3 groups, 40 animals in each. Then the animals were subjected to a thrice-repeated intratracheal administration of bleomycine solution (at a rate of 10.0 mg per kg of body weight) with 2 weeks interval. The tetrapeptide was administered intraperitoneally in the dose of […] of body weight in sterile 0,9% NaCl solution in the course of 7 days beginning from the 5h day after each bleomycine installation.
10 animals of each group were excluded from the experiment by the method of cervical dislocation on the 15, 30, 45 and 60 days after experiment onset.
In each period there was conducted broncho-alveolar lavage fluid (BALF) test in order to estimate its cellular content, and alveolar macrophages phagocytic activity, production of superoxide-anion and total free radical production by BALF cells. In the blood and BALF there were estimated the number of circulating immune complexes (CIC). After the last bleomycin administration there was conducted lung examination.

[4] = day 3, 0,2 μg/kg intraperitoneally
[5] = day 6, 0,2 μg/kg intraperitoneally
[6] = day 10, 0,2 μg/kg intraperitoneally
[7] = day 15, 0,2 μg/kg intraperitoneally
[8] = day 20, 0,2 μg/kg intraperitoneally
[9] = in words, 0,2 μg/kg intraperitoneally

For `CC(C)C[C@H](NC(=O)[C@H](CC(=O)O)NC(=O)[C@H](CCC(=O)O)NC(=O)[C@H](C)N)C(=O)O` [Tetrapeptide, L-alanyl-L-glutamyl-L-aspartyl-L-leucine] (H-AEDL-OH), the Body weight ([1]; 0,2 μg/kg intraperitoneally, 10 injections, day not given) was 228 ± 6+ g, the “Phagocytic activity of AM, Phagocytic index” value ([1]; day 10) was 50.8 ± 2.3+ and the “Phagocytic activity of AM, Phagocytic number” value ([1]; day 10) was 5.78 ± 0.42*+. The “Phagocytic activity of AM, Phagocytic index” value ([1]; day 10, listed as tetrapeptide) was 50,8±2,3, the “Phagocytic activity of AM, Phagocytic index” value ([1]; day 20) was 45.8 ± 2.6*+ and the “Phagocytic activity of AM, Phagocytic number” value ([1]; day 20) was 3.35 ± 0.35+. The “Phagocytic activity of AM, Phagocytic index” value ([1]; day 20, listed as tetrapeptide) was 45,5±2,6, the “Phagocytic activity of AM, Phagocytic index” value ([1]; day 30) was 42.7 ± 2.5 and the “Phagocytic activity of AM, Phagocytic number” value ([1]; day 30) was 2.83 ± 0.36. The “Phagocytic activity of AM, Phagocytic index” value ([1]; day 40) was 40.3 ± 2.3, the “Phagocytic activity of AM, Phagocytic number” value ([1]; day 40) was 3.45 ± 0.23 and the “Phagocytic activity of AM, Phagocytic index” value ([1]; day 50) was 38.5 ± 2.3. For the same molecule, the “Phagocytic activity of AM, Phagocytic number” value ([1]; day 50) was 3.21 ± 0.24, the “pathomorphological changes manifestation (interstitial fibrosis, atelectasis foci, cellular infiltration)” value ([1]; in words) was “decrease” and the “subacute toxicity, side-effects” value (white mongrel male rats) was “does not reveal any side-effects”. The “BAFL cytogram, Lymphocytes” value [2, 4] was 1.68 ± 0.16 ×10^6 cells/lungs, the “BAFL cytogram, Macrophages” value [2, 4] was 29.7 ± 2.8*+ ×10^6 cells/lungs and the “BAFL cytogram, Neutrophiles” value [2, 4] was 6.98 ± 1.48*+ ×10^6 cells/lungs. For the same molecule, the “Phagocytic index (alveolar macrophages)” value [2, 4] was 52.4 ± 2.9*+, the “Phagocytic number (alveolar macrophages)” value [2, 4] was 5.83 ± 0.37*+ and the “BAFL cytogram, Lymphocytes” value [2, 5] was 0.86 ± 0.23 ×10^6 cells/lungs. For the same molecule, the “BAFL cytogram, Macrophages” value [2, 5] was 24.9 ± 1.2*+ ×10^6 cells/lungs, the “BAFL cytogram, Neutrophiles” value [2, 5] was 0.52 ± 0.18 ×10^6 cells/lungs and the “Phagocytic index (alveolar macrophages)” value [2, 5] was 41.5 ± 3.1+. For the same molecule, the “Phagocytic number (alveolar macrophages)” value [2, 5] was 4.98 ± 0.28*+, the “BAFL cytogram, Lymphocytes” value [2, 6] was 0.59 ± 0.28 ×10^6 cells/lungs and the “BAFL cytogram, Macrophages” value [2, 6] was 19.2 ± 2.8*+ ×10^6 cells/lungs. The “BAFL cytogram, Neutrophiles” value [2, 6] was 0.31 ± 0.18 ×10^6 cells/lungs, the “Phagocytic index (alveolar macrophages)” value [2, 6] was 49.2 ± 2.8+ and the “Phagocytic number (alveolar macrophages)” value [2, 6] was 2.98 ± 0.32+. The “BAFL cytogram, Lymphocytes” value [2, 7] was 0.79 ± 0.20 ×10^6 cells/lungs, the “BAFL cytogram, Macrophages” value [2, 7] was 16.3 ± 2.8 ×10^6 cells/lungs and the “BAFL cytogram, Neutrophiles” value [2, 7] was 0.21 ± 0.16 ×10^6 cells/lungs. For the same molecule, the “Phagocytic index (alveolar macrophages)” value [2, 7] was 55.9 ± 4.2, the “Phagocytic number (alveolar macrophages)” value [2, 7] was 3.74 ± 0.25 and the “BAFL cytogram, Lymphocytes” value [2, 8] was 0.56 ± 0.17 ×10^6 cells/lungs. The “BAFL cytogram, Macrophages” value [2, 8] was 14.6 ± 2.1 ×10^6 cells/lungs, the “BAFL cytogram, Neutrophiles” value [2, 8] was 0.25 ± 0.11 ×10^6 cells/lungs and the “Phagocytic index (alveolar macrophages)” value [2, 8] was 49.3 ± 3.6. For the same molecule, the “Phagocytic number (alveolar macrophages)” value [2, 8] was 3.68 ± 0.31, the “basal and zymosan-stimulated production of SA (superoxid-anion) by AM” value [2, 9] was “reliably increases” and the “normalization of free radical production of BALF cells” value [2, 9] was “more rapid normalization”. For the same molecule, the “processes of lung tissue reparation” value ([2]; in words, dose of 0,2 μg/kg of body weight) was “speeding-up”, the “number of lymphocytes in BAFL” value ([3]; 30th day) was 1,75±0,45 ×10^6 cells/lungs and the “AM phagocytic activity, phagocytic index” value ([3]; 45th day) was 75,6±4,5. For the same molecule, the “AM phagocytic activity, phagocytic index” value ([3]; 60th day) was 78,6±3,2, the “number of lymphocytes in BAFL” value ([3]; 60th day) was 1,11±0,15 ×10^6 cells/lungs and the Body weight ([3]; day 15) was 151.6 ± 5.6 g. For the same molecule, the Relative lungs weight ([3]; day 15) was 11.3 ± 0.6 mg/g of body weight, the “Ventricular index, right ven./left ven. × 100%” value ([3]; day 15) was 34.2 ± 1.8+ % and the “BAFL large CIC” value ([3]; day 15) was 42.6 ± 13.1 units. For the same molecule, the “BAFL medium CIC” value ([3]; day 15) was 37.6 ± 7.6 units, the “Blood large CIC” value ([3]; day 15) was 47.2 ± 12.3 units and the “Blood medium CIC” value ([3]; day 15) was 113.4 ± 11.6+ units. For the same molecule, the Body weight ([3]; day 30) was 176.8 ± 5.8 g, the Relative lungs weight ([3]; day 30) was 12.8 ± 0.4 mg/g of body weight and the “Ventricular index, right ven./left ven. × 100%” value ([3]; day 30) was 37.2 ± 1.5*+ %. For the same molecule, the “BAFL large CIC” value ([3]; day 30) was 52.3 ± 8.3*+ units, the “BAFL medium CIC” value ([3]; day 30) was 72.3 ± 8.1*+ units and the “Blood large CIC” value ([3]; day 30) was 85.9 ± 12.3*+ units. The “Blood medium CIC” value ([3]; day 30) was 187.6 ± 20.4*+ units, the Body weight ([3]; day 45) was 195.3 ± 6.5+ g and the Relative lungs weight ([3]; day 45) was 11.5 ± 0.3*+ mg/g of body weight. For the same molecule, the “Ventricular index, right ven./left ven. × 100%” value ([3]; day 45) was 42.3 ± 2.1*+ %, the “BAFL large CIC” value ([3]; day 45) was 76.3 ± 8.3*+ units and the “BAFL medium CIC” value ([3]; day 45) was 79.4 ± 5.4*+ units. The “Blood large CIC” value ([3]; day 45) was 135.2 ± 12.3*+ units, the “Blood medium CIC” value ([3]; day 45) was 208.7 ± 12.5*+ units and the Body weight ([3]; day 60) was 234 ± 9.3+ g. For the same molecule, the Relative lungs weight ([3]; day 60) was 13.4 ± 0.5*+ mg/g of body weight, the “Ventricular index, right ven./left ven. × 100%” value ([3]; day 60) was 46.6 ± 1.4*+ % and the “Ventricular index, right ven./left ven. × 100%” value ([3]; day 60, listed as tetrapeptide) was 46,6±1,4%. For the same molecule, the “BAFL large CIC” value ([3]; day 60) was 53.2 ± 9.4+ units, the “BAFL medium CIC” value ([3]; day 60) was 41.8 ± 6.7+ units and the “Blood large CIC” value ([3]; day 60) was 81.3 ± 11.3*+ units. For the same molecule, the “Blood medium CIC” value ([3]; day 60) was 159.4 ± 12.8+ units, the “basal superoxid-anion production in response to respiratory explosion stimulators” value ([3]; in words) was “decrease” and the “lung morphologic changes as compared to control animals” value ([3]; in words, after the 3rd bleomycine installation) was “reliably less pronounced”.
